The numbers were not newly measured in patent US11291658B2, “Use of gaboxadol in the treatment of diabetes and related conditions” (Ovid Therapeutics Inc., priority 2017, dated 2022), which cites them from elsewhere.

Each structure is given as a SMILES string.

For series [1] the following is noted: treatment of insomnia, three-month efficacy study.
For series [2] the following is noted: patients with a history of drug abuse who received gaboxadol.
Series [3] has as its system streptozotocin-induced diabetic rats with moderate to severe hyperglycemia. To be noted: Gomez et al. 1999.

As to `Oc1noc2c1CCNC2` [gaboxadol, 4,5,6,7-tetrahydroisoxazolo [5,4-c]pyridine-3-ol], the “effects in sleep onset and sleep maintenance” value in series [1] is “failed to show significant effects”. The psychiatric adverse events result in series [2] is on record as “steep increase in psychiatric adverse events”. Also, the hypoglycemic effect result in series [3] is “very mild and could only be seen in the moderately hyperglycemic rats”.
